# Values of other authors, collected in patent US6465018B1, “Dietary supplement for increasing energy, strength, and immune function” (priority 1997, dated 2002).
# System: individuals told to avoid physical exercise
# Details: daily dosage of 3 grams
structure (smiles),measurement,value
CN(CC(=O)O)C(=N)N [creatine monohydrate],intracellular creatine concentrations,raised intracellular creatine concentrations to effective levels
